In paper PMC10846240, “Pharmacokinetic/pharmacodynamic integration of amphenmulin: a novel pleuromutilin derivative against Mycoplasma gallisepticum” (Microbiology Spectrum, 2023):
In brackets after ≈: the same amount, converted by molar mass. Like-named read-outs stand apart in the source and are kept apart here.

Assays:
[1] = system: M. gallisepticum strain S6; test: Static time-kill curves and Sigmoid Emax fit of kill rate; type: cell-based, Mycoplasma gallisepticum; conditions: for EC50: Mycoplasmoides gallisepticum, read-out: EC50 (concentration at half-maximal kill rate); for decrease of mycoplasma counts / type of effect: static; for decrease of mycoplasma counts: within 48 h
Protocol: Based on the MIC value from broth microdilution method, 7 mL blank medium, 0.2 mL amphenmulin solution, and 0.8 mL M. gallisepticum suspension were taken into 10-mL Celine bottles to make the final mycoplasma count of 10^7 CFU/mL, as well as final concentrations of amphenmulin of 1, 2, 4, 6, 8, 16, 32, and 64 MIC, respectively. Growth control (without drug) and negative control (blank medium) were also set up for culture. Then at 0, 6, 9, 12, 24, 36, and 48 h, 100 µL of each culture was taken for counting using the aforementioned method, with a lower limit of 100 CFU/mL. The experiment was repeated three times.
The efficacy of amphenmulin against M. gallisepticum was measured by the kill rate per unit of time. Considering the growth of M. gallisepticum observed in preliminary experiments, this study selected seven time periods of 0–24, 0–36, 0–48, 6–24, 6–36, 6–48, and 12–48 h to calculate the kill rates of amphenmulin. The Sigmoid Emax model in Phoenix was used to fit the relationship between mean kill rate and drug concentration, which is shown below:
E, kill rate of amphenmulin against M. gallisepticum within a period; E0, change rate of M. gallisepticum in the control group (without drug); Emax, maximum kill rate within a period; Ce, concentration of amphenmulin; EC50, drug concentration at half-maximal kill rate; N, Hill coefficient, reflecting the slope of the kill rate–concentration curve.

[2] = system: methicillin-resistant Staphylococcus aureus (MRSA); conditions: cited from earlier work
[3] = system: M. gallisepticum S6 strain; test: Susceptibility assay, broth microdilution (MIC, MBC); type: cell-based, Mycoplasma gallisepticum
Protocol: The minimum inhibitory concentration (MIC) of amphenmulin against M. gallisepticum S6 strain was determined with reference to the protocols previously reported ([16], [17]). The broth microdilution method was performed using 96-well plates to achieve a final titer of approximately 10^7 colony-forming units (CFU)/mL of M. gallisepticum in each well. The final concentrations tested of amphenmulin ranged from 0.488 × 10^−3 to 0.125 µg/mL. Concurrently, a growth control (without drug), an end-point control (blank medium), and a sterile control (sterile broth) were also implemented. […] For the agar dilution method, M. gallisepticum was inoculated and cultured on agar plates containing a twofold dilution series of amphenmulin concentrations, and the MIC was the lowest drug concentration that inhibited growth. Additionally, following the procedure of broth microdilution, the initial culture before incubation and the samples from wells where the color remained unchanged after 48 h of incubation were subjected to 10-fold serial dilutions. Each dilution sample (10 µL) was then plated on drug-free agar for colony counting.

C=C[C@]1(C)C[C@@H](OC(=O)CSc2ccccc2N)[C@]2(C)[C@H](C)CC[C@]3(CCC(=O)[C@H]32)[C@@H](C)[C@@H]1O [amphenmulin, 22-(2-amino-phenylsulfanyl)-22-deoxypleuromutilin]
EC50 ([1]; S6, period 0–24 h): 0.0325 µg/mL (≈ 0.0669 µM)
EC50 ([1]; S6, period 0–36 h): 0.0914 µg/mL (≈ 0.188 µM)
EC50 ([1]; S6, period 0–48 h): 0.913 µg/mL (≈ 1.88 µM)
EC50 ([1]; S6, period 6–24 h): 0.0082 µg/mL (≈ 0.0169 µM)
EC50 ([1]; S6, period 6–36 h): 0.0053 µg/mL (≈ 0.0109 µM)
EC50 ([1]; S6, period 6–48 h): 0.0526 µg/mL (≈ 0.108 µM)
EC50 ([1]; S6, period 12–48 h): 0.524 µg/mL (≈ 1.08 µM)
Emax (maximum kill rate) ([1]; period 0–24 h): 0.1261 h⁻¹
Emax (maximum kill rate) ([1]; period 0–36 h): 0.1817 h⁻¹
Emax (maximum kill rate) ([1]; period 0–48 h): 0.3277 h⁻¹
Emax (maximum kill rate) ([1]; period 6–24 h): 0.0805 h⁻¹
Emax (maximum kill rate) ([1]; period 6–36 h): 0.0821 h⁻¹
Emax (maximum kill rate) ([1]; period 6–48 h): 0.1743 h⁻¹
Emax (maximum kill rate) ([1]; period 12–48 h): 0.2880 h⁻¹
decrease of mycoplasma counts ([1]; 1 MIC): 0.44 Log10CFU/mL
type of effect ([1]; 2–32 MIC): bacteriostatic effect
decrease of mycoplasma counts ([1]; 2–32 MIC): 0.57–2.7 Log10CFU/mL
type of effect ([1]; 64 MIC): bactericidal effect
decrease of mycoplasma counts ([1]; 64 MIC): 3.85 Log10CFU/mL
antibacterial activity against MRSA compared with tiamulin [2]: better antibacterial activity
static kill curve against MRSA, character of effect [2]: more time-dependent tendency and bacteriostatic effects
MIC ([3]; Mycoplasmoides gallisepticum, S6STRAIN, broth microdilution, inoculum 10^7 CFU/mL, strain S6): 3.9 ng/mL (≈ 0.00803 µM)
MBC ([3]; Mycoplasmoides gallisepticum, S6STRAIN, inoculum 10^7 CFU/mL, reduction > 3 Log10CFU/mL after 48 h): 0.0156 µg/mL (≈ 0.0321 µM)
MIC at inoculum levels of 107, 106, and 105 ([3]; early pre-experiments (response to reviewer)): no significant difference
